Ki and remaining activity data for 25 compounds are collected here from patent publication US20030100769A1, “Cyclic amidine compounds” (priority 2000, published 2003).

The structures appear in SMILES notation. Where two headings read alike, the source gives them in different places.

Test [1] has as its target T1, α4β2 subtype of nicotinic acetylcholine receptors (Rattus norvegicus, UniProt P09483+P12390).
T1 construct: examined using rat brain membrane obtained from whole homogenized brain; from tissue; host or cells: rat whole brain membranes (Fischer-344 male rats)
Nature of the test: Binding assay at α4β2 subtype of nicotinic acetylcholine receptors ([3H]-cytisine, rat brain membrane). The source says: (§1) The methods for evaluating the binding capabilities of the compounds at nicotinic acetylcholine receptors are different by subtypes of receptors. The binding capabilities of the compounds at α4β2 nicotinic acetylcholine receptors are examined using rat brain membrane obtained from whole homogenized brain, and determining the inhibiting rate of the compounds against [^3H]-cytisine binding to said brain membrane. Furthermore, the binding capabilities of the compounds at α1β1γδ nicotinic acetylcholine receptors are examined using homogenized rat muscle, and determining the inhibiting rate of the compounds against [^3H]-α-bungarotoxin binding to said muscle homogenate.
Binding Assays at α4β2 Subtype of Nicotinic Acetylcholine Receptors
(1) Preparation of Rat Brain Membrane Containing α4β2 Subtype of Nicotinic Acetylcholine Receptors
Rats were housed in the breeding cage controlled of the room temperature at 23±1° C., and the humidity of 55±5% for 1 to 4 weeks. Rats (3 to 4 rats per a cage) were housed with lights on for 12 hours daily (from 7:00 to 19:00), and allowed free access to food and water.
Preparation of rat brain membrane containing α4β2 subtype of nicotinic acetylcholine receptors was performed as follow. That is, rat brains were isolated just after sacrificed by decapitation, washed with ice-cooled saline solution and then frozen at −80° C. with liquid nitrogen and stored till using. After thawing the frozen brain, the brain was homogenized in 10 volumes of ice-cooled buffer solution (50 mM of Tris-HCl, 120 mM of NaCl, 5 mM of KCl, 1 mM of MgCl2, 2 mM of CaCl2; pH 7.4; 4° C.) using homogenizer (HG30, Hitachi Kohki Ltd.) for 30 seconds, and the homogenate were centrifuged under 1,000×G for 10 minutes at 4° C. The resulting supernatant was separated and the pellet was homogenized again with half volume of aforementioned prior buffer solution and centrifuged under the same conditions. Combined supernatant was further centrifuged under 40,000×G for 20 minutes at 4° C. The pellet was suspended in buffer solution and used for binding assays at receptors.
(2) Experiments of α4β2 Subtype of Nicotinic Acetylcholine Receptors Binding
Suspensions of membrane pellets containing 400-600 μg of protein were added to test tubes containing test compounds and [^3H]-cytisine (2 nM) in a final volume of 200 μl and incubated for 75 minutes in ice-cooled bath. The samples were isolated by vacuum filtration onto Whatman GF/B filters, which were prerinsed with 0.5% polyethylenimine just prior to sample filtration, using Brandel multi manifold cell harvester. The filters were rapidly washed with buffer solution (3×1 ml). The filters were counted in 3 ml of clearsol I (Nacalai Tesque Inc.).
The analyses of the experimental results were conducted by using the Accufit Competition Program (Beckman Ltd.).

Test [2] deals with α1β1γδ subtype of nicotinic acetylcholine receptors (Rattus norvegicus, UniProt P18916+P25108+P25109+P25110). Nature of the test: biochemical. It counts as binding. Particulars: for remaining activity at 100 µM: read-out: control % of [3H]-α-Bgt binding at 100 μM of test compound; for remaining activity at 1000 µM: read-out: control % of [3H]-α-Bgt binding at 1,000 μM of test compound.
From the text: as §1
Binding Assays at α1β1γδ Subtype of Nicotinic Acetylcholine Receptors
The affinity of the compounds of the present invention to α1β1γδ subtype of nicotinic acetylcholine receptors was measured by the following method, which was modified method described by Garcha H. S., Thomas P., Spivak C.
(1) Preparation of Rat Skeletal Muscles Containing α1β1γδ Subtype of Nicotinic Acetylcholine Receptors
The substantially same animals described in the Biological Experiment 1 were used.
The isolation of α1β1γδ subtype of nicotinic acetylcholine receptors was performed as follow. That is, rat posterior skeletal muscles were isolated just after sacrificed by decapitation, washed with ice-cooled saline solution and then frozen at −80° C. with liquid nitrogen and stored till using. After thawing the frozen muscles, tissue was homogenized ([…]) with buffer solution [2.5 mM of sodium phosphate buffer (pH:7.2), 90 mM of NaCl, 2 mM of KCl, 1 mM of EDTA, 2 mM of benzamidine, 0.1 mM of benzethonium chloride, 0.1 mM of PMSF, 0.01% of sodium azide] in Waring blender (Waring blender 34BL97; WARING PRODUCTS DIVISION DYNAMICS CORPORATION OF AMERICA) for 60 seconds. The homogenate were centrifuged under 20,000×G for 60 minutes at 4° C. The supernatant was separated and the resulting pellet was added to the same buffer (1.5 ml/g wet weight), and homogenized under the same conditions. Triton X100 (2% w/v) was added and the mixture was stirred for 3 hours at 4° C. The centrifugation at 100,000×G for 60 minutes at 4° C. yielded the rat muscle extract as supernatant. This was stored at 4° C. for up to 4 weeks, and used for binding assays at receptors.
(2) Experiments of α1β1γδ Subtype of Nicotinic Acetylcholine Receptors Binding
Receptors binding experiments were performed as follow. That is, the extract of rat muscle containing 600-900 μg of protein was added to test tubes containing test compounds and incubated for 15 minutes at 37° C. Then, to this mixture was added 1 nM of [^3H]-α-bungarotoxin (α-Bgt) and further incubated for 2 hours. The samples were isolated by vacuum filtration onto Whatman GF/B filters, which were prerinsed with 0.5% polyethylenimine just prior to sample filtration, using Brandel multi manifold cell harvester. The filters were rapidly rinsed with washing solution (10 mM of KH2PO4, 150 mM of NaCl, pH 7.2, room temperature) (5×1 ml). The filters were counted in 3 ml of clearsol I (Nacalai Tesque Inc.). The determination of nonspecific binding was incubated in the presence of 1 μM α-Bgt. […] In the receptor binding experiments, said buffer solution was added for adjusting the final concentration of BSA to be 0.05%.
The analyses of the experimental results were conducted by the same way as described in the Biological Experiment 1.

The mark [3] stands for this setting: rat brain membrane, [3H]-cytisine 2 nM, read-out: Affinities for receptors Ki α4β2.

T1 sequence (P09483 31-630): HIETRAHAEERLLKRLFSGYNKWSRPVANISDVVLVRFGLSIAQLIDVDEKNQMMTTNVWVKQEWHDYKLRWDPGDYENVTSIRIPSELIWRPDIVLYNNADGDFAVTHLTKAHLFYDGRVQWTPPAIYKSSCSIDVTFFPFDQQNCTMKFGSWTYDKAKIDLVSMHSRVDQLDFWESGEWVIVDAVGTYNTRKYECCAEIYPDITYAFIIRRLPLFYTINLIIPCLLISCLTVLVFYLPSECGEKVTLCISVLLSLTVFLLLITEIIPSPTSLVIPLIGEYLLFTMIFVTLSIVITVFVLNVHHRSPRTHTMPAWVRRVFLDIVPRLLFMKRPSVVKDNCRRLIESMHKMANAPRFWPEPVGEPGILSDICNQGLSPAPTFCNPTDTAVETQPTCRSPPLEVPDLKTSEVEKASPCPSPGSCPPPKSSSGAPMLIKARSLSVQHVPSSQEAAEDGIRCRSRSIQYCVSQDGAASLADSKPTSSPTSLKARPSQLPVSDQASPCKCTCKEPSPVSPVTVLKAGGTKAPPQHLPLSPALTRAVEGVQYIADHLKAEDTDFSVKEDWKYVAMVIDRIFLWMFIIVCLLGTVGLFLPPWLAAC
T1 sequence (P12390 25-500): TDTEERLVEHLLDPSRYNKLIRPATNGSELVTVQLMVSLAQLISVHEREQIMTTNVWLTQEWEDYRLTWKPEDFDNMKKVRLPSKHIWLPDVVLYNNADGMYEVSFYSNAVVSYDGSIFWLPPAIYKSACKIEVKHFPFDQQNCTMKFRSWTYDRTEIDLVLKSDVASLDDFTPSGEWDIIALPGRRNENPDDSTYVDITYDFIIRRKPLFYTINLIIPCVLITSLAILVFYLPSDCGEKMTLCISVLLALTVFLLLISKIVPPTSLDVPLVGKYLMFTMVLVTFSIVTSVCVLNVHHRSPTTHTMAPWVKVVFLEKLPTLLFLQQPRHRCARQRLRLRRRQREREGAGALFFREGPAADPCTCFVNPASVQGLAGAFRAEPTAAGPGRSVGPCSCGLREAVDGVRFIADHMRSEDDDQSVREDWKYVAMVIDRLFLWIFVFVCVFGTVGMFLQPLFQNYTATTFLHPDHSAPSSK
α1β1γδ subtype of nicotinic acetylcholine receptors, sequence (P25109 24-501): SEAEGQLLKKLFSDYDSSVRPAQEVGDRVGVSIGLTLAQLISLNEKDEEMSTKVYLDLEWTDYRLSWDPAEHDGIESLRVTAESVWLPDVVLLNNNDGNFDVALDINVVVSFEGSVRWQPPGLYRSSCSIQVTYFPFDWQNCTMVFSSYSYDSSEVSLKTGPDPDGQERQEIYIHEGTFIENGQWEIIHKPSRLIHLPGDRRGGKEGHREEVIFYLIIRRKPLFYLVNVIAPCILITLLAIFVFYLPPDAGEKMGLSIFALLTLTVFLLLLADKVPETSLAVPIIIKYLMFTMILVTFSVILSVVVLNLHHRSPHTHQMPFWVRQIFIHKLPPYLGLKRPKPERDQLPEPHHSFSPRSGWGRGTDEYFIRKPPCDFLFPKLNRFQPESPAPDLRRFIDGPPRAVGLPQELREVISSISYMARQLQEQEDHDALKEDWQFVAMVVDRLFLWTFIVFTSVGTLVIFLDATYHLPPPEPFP
α1β1γδ subtype of nicotinic acetylcholine receptors, sequence (P25110 22-517): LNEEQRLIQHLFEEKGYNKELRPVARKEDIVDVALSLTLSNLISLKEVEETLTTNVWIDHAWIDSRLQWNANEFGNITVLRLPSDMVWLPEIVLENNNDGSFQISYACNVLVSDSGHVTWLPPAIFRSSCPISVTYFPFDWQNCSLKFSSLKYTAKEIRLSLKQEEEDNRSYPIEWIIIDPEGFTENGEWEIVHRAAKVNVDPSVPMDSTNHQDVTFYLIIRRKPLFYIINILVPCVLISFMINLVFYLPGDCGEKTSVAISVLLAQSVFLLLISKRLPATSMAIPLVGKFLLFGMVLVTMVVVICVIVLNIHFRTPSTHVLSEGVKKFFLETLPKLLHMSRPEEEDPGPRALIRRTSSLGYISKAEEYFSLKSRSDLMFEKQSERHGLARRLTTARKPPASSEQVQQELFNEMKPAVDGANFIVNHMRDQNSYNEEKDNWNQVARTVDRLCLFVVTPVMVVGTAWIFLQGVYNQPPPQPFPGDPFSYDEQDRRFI
α1β1γδ subtype of nicotinic acetylcholine receptors, sequence (P25108 21-457): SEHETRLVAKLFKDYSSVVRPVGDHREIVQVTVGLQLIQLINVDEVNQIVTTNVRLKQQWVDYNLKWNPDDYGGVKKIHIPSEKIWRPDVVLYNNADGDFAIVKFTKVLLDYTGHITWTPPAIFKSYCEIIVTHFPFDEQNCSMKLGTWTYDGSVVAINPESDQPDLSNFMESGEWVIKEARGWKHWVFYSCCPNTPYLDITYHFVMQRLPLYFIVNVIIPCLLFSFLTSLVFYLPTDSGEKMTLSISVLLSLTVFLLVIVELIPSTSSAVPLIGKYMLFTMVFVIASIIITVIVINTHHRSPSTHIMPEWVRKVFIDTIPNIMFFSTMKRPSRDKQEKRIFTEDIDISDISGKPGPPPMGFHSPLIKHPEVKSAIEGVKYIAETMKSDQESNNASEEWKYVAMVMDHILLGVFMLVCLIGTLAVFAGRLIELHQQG

As to `CN1CCCN=C1c1ccc(Cl)nc1` [Compound 4, 2-(6-chloro-3-pyridyl)-1-methyl-1,4,5,6-tetrahydropyrimidine], the Ki in test [1] is 0.067 µM. Also, in test [2], the remaining activity at 100 µM turned out to be 46% and the remaining activity at 1000 µM was determined as 16%.

In test [1], `Clc1ccc(CC2=NCCN2)cn1` [Compound 7, 2-(6-chloro-3-pyridyl)methyl-2-imidazoline] returned a Ki of 0.086 µM. In test [2], the remaining activity at 100 µM worked out at 80% and the remaining activity at 1000 µM was determined as 51%.

In the case of `Clc1ccc(CC2=NCCCN2)cn1` [Compound 8, 2-(6-chloro-3-pyridyl)methyl-1,4,5,6-tetrahydropyrimidine], the Ki was determined as 0.029 µM in test [1] and 395 µM in test [2].

Turning to `CN1CCN=C1Cc1ccc(Cl)nc1` [Compound 9, 2-(6-chloro-3-pyridyl)methyl-1-methyl-2-imidazoline], the Ki in test [1] is 0.0077 µM. In test [2], the remaining activity at 100 µM was 43% and the remaining activity at 1000 µM stood at 16%.

In test [1], `CN1CCCN=C1Cc1ccc(Cl)nc1` [Compound 10, 2-(6-chloro-3-pyridyl)methyl-1-methyl-1,4,5,6-tetrahydropyrimidine] displayed a Ki of 0.001 µM. Further, in test [2], the remaining activity at 100 µM is 40% and the remaining activity at 1000 µM amounted to 17%.

`CC1=NCCN1Cc1ccc(Cl)nc1` [Compound 11, 1-(6-chloro-3-pyridyl)methyl-2-methyl-2-imidazoline]: affinity in test [1] was put at a Ki of 0.115 µM. In addition, in test [2], the remaining activity at 100 µM was determined as 74% and the remaining activity at 1000 µM is 53%.

In the case of `CC1(C)CN(Cc2ccc(Cl)nc2)C=N1` [Compound 12, 1-(6-chloro-3-pyridyl)methyl-4,4-dimethyl-2-imidazoline], affinity in test [1] was put at a Ki of 0.268 µM. Also, in test [2], the remaining activity at 100 µM was found to be 79% and the remaining activity at 1000 µM was 42%.

Take `C1CN=C(CC2CCOC2)NC1` (stereo not drawn) [Compound 15, 2-(tetrahydrofuran-3-yl)methyl-1,4,5,6-tetrahydropyrimidine]: in test [1] (setting [3]), the Ki worked out at 0.95 µM.

`Brc1cncc(CC2=NCCCN2)c1` [Compound 16, 2-(5-bromo-3-pyridyl)methyl-1,4,5,6-tetrahydropyrimidine] returned a Ki in test [1] of 0.392 µM. Besides, in test [2], the remaining activity at 100 µM stood at 63% and the remaining activity at 1000 µM is 30%.

`c1cncc(CC2=NCCCN2)c1` [Compound 18, 2-(3-pyridyl)methyl-1,4,5,6-tetrahydropyrimidine] gave a Ki in test [1] of 0.086 µM. In test [2], the remaining activity at 100 µM was 62% and the remaining activity at 1000 µM stood at 18%.

For `c1cncc(CC2=NCCN2)c1` [Compound 19, 2-(3-pyridyl)methyl-2-imidazoline], in test [2], the remaining activity at 100 µM stood at 69% and the remaining activity at 1000 µM was 29%.

As for `c1ccc2ncc(C3=NCCCN3)cc2c1` [Compound 25, 2-(3-quinolyl)-1,4,5,6-tetrahydropyrimidine], in test [1] (setting [3]), the Ki is 0.338 µM. Besides, in test [2], the remaining activity at 100 µM turned out to be 41% and the remaining activity at 1000 µM was found to be 7%.

Take `CC1=NCC(c2cccnc2)N1` (stereo not drawn) [Compound 32, 2-methyl-5-(3-pyridyl)-2-imidazoline]: the Ki in test [1] (setting [3]) amounted to 0.58 µM. Further, in test [2], the remaining activity at 100 µM was 69% and the remaining activity at 1000 µM worked out at 35%.

In turn, `C1=NCC(c2cccnc2)N1` (stereo not drawn) [Compound 33, 5-(3-pyridyl)-2-imidazoline] registered a Ki in test [1] of 0.365 µM.

For `Clc1cc(CC2=NCCCN2)cnc1Cl` [Compound 36, 2-(5,6-dichloro-3-pyridyl)methyl-1,4,5,6-tetrahydropyrimidine], the Ki in test [1] is 0.124 µM. In addition, in test [2], the remaining activity at 100 µM was found to be 81% and the remaining activity at 1000 µM is 34%.

`Cc1ccc(CC2=NCCCN2)cn1` [Compound 43, 2-(6-methyl-3-pyridyl)methyl-1,4,5,6-tetrahydropyrimidine] gave a Ki in test [1] of 0.167 µM. For the same compound, in test [2], the remaining activity at 100 µM amounted to 71% and the remaining activity at 1000 µM came out at 28%.

Consider `Fc1ccc(CC2=NCCCN2)cn1` [Compound 48, 2-(6-fluoro-3-pyridyl)methyl-1,4,5,6-tetrahydropyrimidine], for which the Ki in test [1] amounted to 0.082 µM; in test [2] it was 257 µM.

Regarding `Clc1cc(CC2=NCCN2)cnc1Cl` [Compound 49, 2-(5,6-dichloro-3-pyridyl)methyl-2-imidazoline], the Ki in test [1] (setting [3]) is 0.211 µM; in test [2], 773 µM.

As to `Clc1cc(CN2C=NCCC2)cnc1Cl` [Compound 52, 1-(5,6-dichloro-3-pyridyl)methyl-1,4,5,6-tetrahydropyrimidine], the Ki was determined as 0.0012 µM in test [1] and 23 µM in test [2].

Regarding `CN1CCN=C1Cc1cnc(Cl)c(Cl)c1` [Compound 53, 2-(5,6-dichloro-3-pyridyl)methyl-1-methyl-2-imidazoline], the results for the Ki in test [1] and in test [2] were 0.01 µM and 83 µM, respectively.

`CC1CCNC(Cc2ccc(Cl)nc2)=N1` (stereo not drawn) [Compound 54, 2-(6-chloro-3-pyridyl)methyl-4-methyl-1,4,5,6-tetrahydropyrimidine]: the Ki was found to be 0.108 µM in test [1] and 1740 µM in test [2].

For the compound `Clc1ncc(CC2=NCCCN2)s1` [Compound 64, 2-(2-chloro-5-thiazolyl)methyl-1,4,5,6-tetrahydropyrimidine], the values for the Ki in test [1] and in test [2] were 0.0081 µM and 23 µM, respectively.

On to `Clc1ncc(CC2=NCCN2)s1` [Compound 65, 2-(2-chloro-5-thiazolyl)methyl-2-imidazoline], for which the Ki was 0.053 µM in test [1] and 524 µM in test [2].

Take `c1ncc(CC2=NCCCN2)cn1` [Compound 66, 2-(5-pyrimidyl)methyl-1,4,5,6-tetrahydropyrimidine]: the results for the Ki in test [1] and in test [2] were 0.09 µM and 841 µM, respectively.

Take `Cc1cncc(CC2=NCCCN2)c1` [Compound 68, 2-(5-methyl-3-pyridyl)methyl-1,4,5,6-tetrahydropyrimidine]: the inhibition constant (Ki) in test [1] amounted to 0.203 µM; in test [2], 231 µM.

As a reminder, the Ki is a measure of affinity in units of concentration, obtained from inhibition or displacement.
